Data published in patent publication US20020156094A1, “Sulfonamide interleukin-1beta converting enzyme inhibitors” (Warner-Lambert Company, priority 1996, published 2002).
“And” between values parts separate entries of the source, which are not always exact repeats. Identical values can stand only once.

Assays:
[1] = target: T1, ICE (interleukin-1β converting enzyme, Caspase-1) (Homo sapiens, UniProt P29466); experiment: ICE Ki fluorescence assay (Ac-Tyr-Val-Ala-Asp-AMC hydrolysis); format: biochemical; conditions: ICE 0.24 nM, 15 μM Ac-Tyr-Val-Ala-Asp-AMC, reversible competitive model
T1 sequence (P29466 120-297 limits assumed): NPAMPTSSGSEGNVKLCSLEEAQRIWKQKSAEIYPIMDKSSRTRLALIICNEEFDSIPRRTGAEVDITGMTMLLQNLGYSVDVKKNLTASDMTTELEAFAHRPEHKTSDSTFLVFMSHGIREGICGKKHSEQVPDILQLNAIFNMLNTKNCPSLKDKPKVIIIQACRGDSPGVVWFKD
T1 sequence (P29466 317-404 limits assumed): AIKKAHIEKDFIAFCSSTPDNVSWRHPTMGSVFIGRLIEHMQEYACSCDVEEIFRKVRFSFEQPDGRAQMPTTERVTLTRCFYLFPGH
Description: Substrate hydrolysis is monitored for 300 seconds by observing the fluorescence of released AMC using excitation at 380 nm and emission at 460 nm. Mean rates of substrate hydrolysis are evaluated by linear-regression analysis of the fluorescence vs time traces. To evaluate Ki, plots of percent inhibition vs inhibitor concentration are fit by non-linear regression to a reversible, competitive model: [formula]
Where the competition factor (1+[S]/KM)=2.

[2] = target: T1, ICE (interleukin-1β converting enzyme, Caspase-1); experiment: ICE Colorimetric Dose-Response (IC50) Assay; format: biochemical; conditions: ICE approx. 24 nM, 60 min preincubation, 50 μM Ac-Tyr-Val-Ala-Asp-pNA, 25° C.
Description: ICE Colorimetric Dose-Response (IC50) Assay
(§1) Diluted inhibitor stocks are prepared by two-fold serial dilution from a primary stock whose concentration is selected (based on screening results or on prior attempts at IC50 evaluation) to achieve approximately 95% inhibition in the most concentrated well. Aliquots of each dilution are transferred to a microtitre plate in triplicate.
(§2) ICE enzyme is diluted to approximately 24 nM in HGE buffer (100 mM HEPES pH 7.5, 0.5 mM EDTA, 20% glycerol, 0.1% Bovine Serum Albumin (BSA)), and activated by adding dithiothreitol (DTT) to a final concentration of 5 mM. The activated enzyme is then aliquoted into wells containing inhibitor or vehicle, and the plate is preincubated for 60 minutes at ambient temperature. Substrate (Ac-Tyr-Val-Ala-Asp-pNA) is added to each well to a final concentration of 50 μM, and plates are placed in the microtitre plate-reader thermostated to 25° C. Beginning 5 minutes after addition of substrate, absorbance (405 nm) of wells is monitored for 1 hour, and activity is calculated as the mean rate of change in absorbance during this interval.

Ich-2 (Caspase-4) = target: T2, Ich-2 (Caspase-4) (Homo sapiens, UniProt P49662); experiment: Ich-2 (Caspase-4) Colorimetric Dose-Response (IC50) Assay; format: biochemical; conditions: enzyme 64 nM, substrate Ac-Leu-Glu-Val-Asp-pNA
T2 sequence (P49662 81-270 limits assumed): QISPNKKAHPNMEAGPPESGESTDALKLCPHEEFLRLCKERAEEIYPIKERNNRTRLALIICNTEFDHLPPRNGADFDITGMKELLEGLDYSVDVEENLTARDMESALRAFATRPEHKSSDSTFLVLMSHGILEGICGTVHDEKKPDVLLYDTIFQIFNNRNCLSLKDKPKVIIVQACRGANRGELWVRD
T2 sequence (P49662 290-377 limits assumed): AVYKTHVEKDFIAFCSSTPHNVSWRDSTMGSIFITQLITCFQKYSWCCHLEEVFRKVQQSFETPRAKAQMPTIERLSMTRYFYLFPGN
Description: as §1, §2
Ich-2 (Caspase-4) Colorimetric Dose-Response (IC50) Assay
Inhibition of Ich-2 enzyme is assayed as described above for ICE, except that enzyme is used at 64 nM, and 60 µM of the Ich-2-specific substrate Ac-Leu-Glu-Val-Asp-pNA is used instead of the ICE substrate Ac-Tyr-Val-Ala-Asp-pNA.

| Ki [1] | IC50 [2] [µM] | IC50 (Ich-2 (Caspase-4)) [µM] | melting point [°C] | SMILES |
| --- | --- | --- | --- | --- |
| 34.5 µM and 32 µM | 245 | 8590 | 96 to 104 | O=C(O)CC(NC(=O)OCc1ccccc1)C(=O)CNS(=O)(=O)CCCc1ccccc1 (stereo not shown) [Example 2b, 3-Benzloxycarbonylamino-4-oxo-5-(3-phenylpropane-1-sulfonylamino)-pentanoic acid] |
| 30.1 µM | 25 | 59 |  | CC1(C)C2CC[C@]1(CS(=O)(=O)NCC(=O)C(CC(=O)O)NC(=O)OCc1ccccc1)C(=O)C2 (stereo partly drawn) [Example 2i, 3-Benzyloxycarbonylamino-5-(7,7-dimethyl-2-oxo-bicyclo[2.2.1]hept-1-(R)-ylmethanesulfonylamino)-4-oxo-pentanoic acid] |
| 0.0078 µM | 0.003 | 0.9 |  | CC(=O)NC(Cc1ccc(O)cc1)C(=O)NC(CCC(=O)O)C(=O)NC(C(=O)NC(CC(=O)O)C(=O)CNS(=O)(=O)CCc1ccccc1)C(C)C (stereo not shown) [Example 3d] |
| 20 µM | 165 | 252 |  | O=C(O)C[C@H](NC(=O)CN1CCc2ccccc2C1=O)C(=O)CNS(=O)(=O)CC12CCC(CC1)C2 [Example 5b, (S)-5-(Bicyclo[2.2.1]hept-1-ylmethanesulfonylamino)-4-oxo-3-[2-(1-oxo-3,4-dihydro-1H-isoquinolin-2-yl)-acetylamino]-pentanoic acid] |
